Data taken from patent publication US20200339691A1, “PROTEINACEOUS MOLECULES AND USES THEREFOR” (priority 2018, published 2020).
Where a SMILES comes first, the peptide text is derived from it. The star is where a group is joined. Myristoyl = CCCCCCCCCCCCCC(=O)*

Key:
[1] = test system: CD44^hiCD24^lo CSCs in MDA-MB-231 cells; assay: FACS analysis of CD44^hiCD24^lo cancer stem cells in MDA-MB-231 cells treated with P1 analogues; assay type: cell-based, human; details: 50 μM peptide, 48 hours; for CD44^hiCD24^lo CSCs (%) / COI, Live Single CD44^hiCD24^lo CSCs (Cell Count): n = 1; for Average Inhibition of CSCs (%) / CD44^hiCD24^lo CSCs (%) Repeat 1 / CD44^hiCD24^lo CSCs (%) Repeat 2 / CD44^hiCD24^lo CSCs (%) Repeat 3: n = 3
Description: Analogues of P1 (Table 6) were designed and synthesized in accordance with the procedure of Example 5. The ability of these analogues to inhibit cancer stem cells was determined using FACS analysis on MDA-MB-231 cells, which constitutively contain approximately 90% CD44^hiCD24^lo cancer stem cells, treated with the peptides.
(§1) Non-adherent cells were removed during the washing steps.

MDA-MB-231 cells = assay type: cell-based, human; details: 50 μM peptide, 48 hours, n = 1
Description: as §1
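Throughout, for COI, Live Single Cells (Cell Count): live means Hoechst-negative events among single cells.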

SMILES	Inhibition of CSCs (%) Repeat 1 [1]	Inhibition of CSCs (%) Repeat 2 [1]	Inhibition of CSCs (%) Repeat 3 [1]	CD44^hiCD24^lo CSCs (%) [1]	COI, Live Single CD44^hiCD24^lo CSCs (Cell Count) [1]	Average Inhibition of CSCs (%) [1]	CD44^hiCD24^lo CSCs (%) Repeat 1 [1]	CD44^hiCD24^lo CSCs (%) Repeat 2 [1]	CD44^hiCD24^lo CSCs (%) Repeat 3 [1]	COI (Cell Count) (MDA-MB-231 cells)	COI, Live Single Cells (Cell Count) (MDA-MB-231 cells)	COI, Single (Cell Count) (MDA-MB-231 cells)	Total Cell Count (MDA-MB-231 cells)
CCCCCCCCCCCCCC(=O)N[C@@H](CC(C)C)C(=O)N[C@H](C(=O)N[C@@H](Cc1ccccc1)C(=O)N[C@H](C(=O)N[C@@H](Cc1ccccc1)C(=O)N[C@@H](CCCNC(=N)N)C(=O)N[C@@H](CC(C)C)C(=O)N[C@@H](CCCNC(=N)N)C(=O)N[C@@H](CCCCN)C(=O)NCC(=O)N[C@@H](CCCNC(=N)N)C(=O)N[C@@H](CCSC)C(=O)N[C@@H](CCSC)C(=O)N[C@@H](CC(=O)O)C(=O)N[C@H](C(=O)N[C@@H](CC(C)C)C(=O)N[C@@H](CCCCN)C(N)=O)C(C)C)[C@@H](C)CC)[C@@H](C)O [Peptide 2853842, Myristoyl-LTFIFRLRKGRMMDVLK-NH2] (Myristoyl-LTFIFRLRKGRMMDVLK-NH2)	76.16%	78.88%	81.46%	12.39%	27	78.83%	21.37%	18.95%	16.64%	325	218	249	3873
CCCCCCCCCCCCCC(=O)N[C@@H](CC(C)C)C(=O)N[C@H](C(=O)N[C@@H](Cc1ccccc1)C(=O)N[C@H](C(=O)N[C@@H](Cc1ccccc1)C(=O)N[C@@H](CCCNC(=N)N)C(=O)N[C@@H](CC(C)C)C(=O)N[C@@H](CCCNC(=N)N)C(=O)N[C@@H](CCCCN)C(=O)NCC(=O)N[C@@H](CCCNC(=N)N)C(=O)N[C@@H](CCSC)C(=O)N[C@@H](CCSC)C(=O)N[C@@H](CC(=O)O)C(=O)N[C@H](C(=O)N[C@@H](Cc1ccc(O)cc1)C(=O)N[C@@H](CCCCN)C(N)=O)C(C)C)[C@@H](C)CC)[C@@H](C)O [Peptide 2853843, Myristoyl-LTFIFRLRKGRMMDVYK-NH2] (Myristoyl-LTFIFRLRKGRMMDVYK-NH2)	87.60%	82.06%	90.31%	7.50%	6	86.66%	11.11%	16.09%	8.70%	402	80	298	9152
CCCCCCCCCCCCCC(=O)N[C@@H](CC(C)C)C(=O)N[C@H](C(=O)N[C@@H](Cc1ccccc1)C(=O)N[C@H](C(=O)N[C@@H](Cc1ccccc1)C(=O)N[C@@H](CCCNC(=N)N)C(=O)N[C@@H](CC(C)C)C(=O)N[C@@H](CCCNC(=N)N)C(=O)N[C@@H](CCCCN)C(=O)NCC(=O)N[C@@H](CCCNC(=N)N)C(=O)N[C@@H](CCSC)C(=O)N[C@@H](CCSC)C(=O)N[C@@H](CC(=O)O)C(=O)N[C@H](C(=O)N[C@@H](CCCCN)C(=O)N[C@@H](CCCNC(=N)N)C(N)=O)C(C)C)[C@@H](C)CC)[C@@H](C)O [Peptide 2853844, Myristoyl-LTFIFRLRKGRMMDVKR-NH2] (Myristoyl-LTFIFRLRKGRMMDVKR-NH2)	80.13%	89.73%	78.08%	10.61%	7	82.65%	17.81%	9.21%	19.67%	147	66	101	2094
CCCCCCCCCCCCCC(=O)N[C@@H](CC(C)C)C(=O)N[C@H](C(=O)N[C@@H](Cc1ccccc1)C(=O)N[C@H](C(=O)N[C@@H](Cc1ccccc1)C(=O)N[C@@H](CCCNC(=N)N)C(=O)N[C@@H](CC(C)C)C(=O)N[C@@H](CCCNC(=N)N)C(=O)N[C@@H](CCCCN)C(=O)NCC(=O)N[C@@H](CCCNC(=N)N)C(=O)N[C@@H](CCSC)C(=O)N[C@@H](CCSC)C(=O)N[C@@H](CC(=O)O)C(=O)N[C@H](C(=O)N[C@@H](CCCCN)C(=O)N[C@@H](CCC(=O)O)C(N)=O)C(C)C)[C@@H](C)CC)[C@@H](C)O [Peptide 2853845, Myristoyl-LTFIFRLRKGRMMDVKE-NH2] (Myristoyl-LTFIFRLRKGRMMDVKE-NH2)	15.69%	19.72%	17.64%	65.10%	2612	17.69%	75.56%	72.02%	73.91%	4600	4012	4111	5598
CCCCCCCCCCCCCC(=O)N[C@@H](CC(C)C)C(=O)N[C@H](C(=O)N[C@@H](Cc1ccccc1)C(=O)N[C@H](C(=O)N[C@@H](Cc1ccccc1)C(=O)N[C@@H](CCCNC(=N)N)C(=O)N[C@@H](CC(C)C)C(=O)N[C@@H](CCCNC(=N)N)C(=O)N[C@@H](CCCCN)C(=O)NCC(=O)N[C@@H](CCCNC(=N)N)C(=O)N[C@@H](CCSC)C(=O)N[C@@H](CCSC)C(=O)N[C@@H](CC(=O)O)C(=O)N[C@H](C(=O)N[C@@H](CCCCN)C(=O)N[C@@H](CC(C)C)C(N)=O)C(C)C)[C@@H](C)CC)[C@@H](C)O [Peptide 2853846, Myristoyl-LTFIFRLRKGRMMDVKL-NH2] (Myristoyl-LTFIFRLRKGRMMDVKL-NH2)	61.79%	63.60%	62.39%	27.88%	87	62.59%	34.25%	32.66%	33.75%	370	312	330	10000
CCCCCCCCCCCCCC(=O)N[C@@H](CC(C)C)C(=O)N[C@H](C(=O)N[C@@H](Cc1ccccc1)C(=O)N[C@H](C(=O)N[C@@H](Cc1ccccc1)C(=O)N[C@@H](CCCNC(=N)N)C(=O)N[C@@H](CC(C)C)C(=O)N[C@@H](CCCNC(=N)N)C(=O)N[C@@H](CCCCN)C(=O)NCC(=O)N[C@@H](CCCNC(=N)N)C(=O)N[C@@H](CCSC)C(=O)N[C@@H](CCSC)C(=O)N[C@@H](CC(=O)O)C(=O)N[C@H](C(=O)N[C@@H](CCCCN)C(=O)N[C@@H](Cc1ccc(O)cc1)C(N)=O)C(C)C)[C@@H](C)CC)[C@@H](C)O [Peptide 2853847, Myristoyl-LTFIFRLRKGRMMDVKY-NH2] (Myristoyl-LTFIFRLRKGRMMDVKY-NH2)	25.89%	27.27%	26.71%	62.59%	2640	26.62%	66.42%	65.25%	65.76%	5345	4218	4268	10000
